Experimental data from patent US4283328A, “Preparation of dehydropeptides” (Research Corporation, priority 1979, dated 1981).
*1 amine or outer side, *2 acyl side, *3 side chain or, on linkers, in order; H or OH if unused. Where a SMILES comes first, the peptide text is derived from it. [ ]: non-standard residue; d: D form. The star is where a group is joined. X1 = O=C(C(=Cc1ccccc1)N[*:1])[*:2]; Cbz = O=C(OCc1ccccc1)*

What was measured:
α-chymotrypsin = experiment: Enzymolysis with chymotrypsin (stability to enzymatic hydrolysis); type: in vitro ADME
Method: (§1) One purpose in introducing unsaturation into a peptide chain is to increase the binding of the peptides to active sites and protect the peptide from enzymatic cleavage, e.g. hydrolysis, in the bloodstream, thus enhancing activity. One method of measuring the stability of peptides to enzymatic hydrolysis is to treat the peptides with chymotrypsin which is specific for phenyl bonds.
(§2) A solution of 46 mg of N-Carbobenzoxy-L-prolyl-dehydrophenylalanyl-L-phenylalanine in 4 ml of methanol/water (1:1) was diluted to 10 ml with a 0.05 N tris buffer solution (pH 8) containing 0.46 mg of α-chymotrypsin. After standing 2 hours at 37° in a constant temperature bath, a 0.5 ml sample was treated with 0.5 ml of a 1.25% acetone solution of ninhydrin.

[1] = system: angiotensin I converting enzyme; experiment: Inhibition of angiotensin I converting enzyme; type: biochemical
[2] = Enzymolysis with chymotrypsin (stability to enzymatic hydrolysis); type: in vitro ADME; conditions: chymotrypsin; 2 hours at 37°, tris buffer pH 8; ninhydrin color; read-out: hydrolysis by α-chymotrypsin
Method: as §1, §2

blood pressure = experiment: Guinea pig blood pressure test; type: in vivo; conditions: relative to BDK = 100%
guinea pig ileum = experiment: Guinea pig ileum contraction assay
From the text: This analog can also be made by solid phase protein synthesis.

renin = experiment: Renin inhibition; type: biochemical

## O=C(N[C@@H](Cc1ccccc1)C(=O)O)C(=Cc1ccccc1)NC(=O)[C@@H]1CCCN1C(=O)OCc1ccccc1 [N-Carbobenzoxy-L-prolyl-dehydrophenylalanyl-L-phenylalanine]
α-chymotrypsin; 2 hours at 37°, tris buffer pH 8, methanol/water, compared with blank solution
  ninhydrin color formed after α-chymotrypsin treatment: matched that of a blank solution
α-chymotrypsin; treatment with chymotrypsin
  stability to chymotrypsin: stable to chymotrypsin

## CC(C)C[C@H](NC(=O)[C@H](Cc1c[nH]cn1)NC(=O)C(=Cc1ccccc1)NC(=O)[C@@H]1CCCN1C(=O)OCc1ccccc1)C(=O)O [Z-Pro-ΔPhe-His-Leu.OH]
[1]
  inhibition of angiotensin I converting enzyme: inhibit angiotensin I converting enzyme

## O=C(O)[C@H](Cc1ccccc1)NC(=O)[C@H](Cc1ccccc1)NC(=O)[C@@H]1CCCN1C(=O)OCc1ccccc1 [ZPro-Phe-Phe.OH, reference compound] (Cbz-Pro-Phe-Phe-OH)
[2]
  metabolised at 2 h: 5%

## N=C(N)NCCC[C@H](NC(=O)[C@H](Cc1ccccc1)NC(=O)[C@@H]1CCCN1C(=O)[C@H](CO)NC(=O)C(=Cc1ccccc1)NC(=O)CNC(=O)[C@@H]1CCCN1C(=O)[C@@H]1CCCN1C(=O)[C@@H](N)CCCNC(=N)N)C(=O)O [dehydro BDK, Arginyl-prolyl-prolyl-glycyl-dehydrophenylalanylseryl-prolyl-phenylalanyl-arginine] (H-RPPG[X1]SPFR-OH)
Blood pressure; given intra-arterially
  reduction of blood pressure, BDK as the standard at 100%: 277.7%
Blood pressure; given intravenously
  decrease of blood pressure, BDK as the standard at 100%: 6250%
Guinea pig ileum; guinea pig ileum, relative to BDK = 100%
  increase in contraction, BDK as the standard at 100%: 247.6%

## COC(=O)[C@H](Cc1ccccc1)NC(=O)[C@@H](NC(=O)C(=Cc1ccccc1)NC(=O)[C@@H](N)CC(C)C)C(C)C [leudehydrophe-val-phe.OMe, Leucyl-dehydrophenylalanyl-valyl-phenylalanine methyl ester]
renin
  inhibition of renin: inhibits renin

## CC(C)C[C@H](NC(=O)[C@H](Cc1c[nH]cn1)NC(=O)C(=Cc1ccccc1)NC(=O)[C@@H]1CCCN1)C(=O)O [tetrapeptide freed of the blocking group, H.Pro-ΔPhe-His-Leu.OH.2HBr]
[1]
  inhibition of angiotensin I converting enzyme: inactive

## Tyr-DAla-Gly-ΔPhe-Met-NH2 Acetate
Guinea pig ileum
  activity in the guinea pig ileum contraction assay: active
